Reference: US8889682B2, “Inhibitors of bruton'S tyrosine kinase” (Hoffmann-La Roche Inc., priority 2011, dated 2014)

Tested on: B cell receptor-mediated activation of B cells in human blood (CD69 expression)
Assay: Inhibition of B cell activation in whole blood measured by CD69 expression
Format: cell-based
Details: anti-IgM stimulation, 20 hours, CD69-positive cells that are also CD20-positive, read-out: HWB IC50
Description: Inhibition of B Cell Activation in Whole Blood Measured by CD69 Expression
A procedure to test the ability of Btk inhibitors to suppress B cell receptor-mediated activation of B cells in human blood is as follows:
Human whole blood (HWB) is obtained from healthy volunteers, with the following restrictions: 24 hr drug-free, non-smokers. Blood is collected by venipuncture into Vacutainer tubes anticoagulated with sodium heparin. Test compounds are diluted to ten times the desired starting drug concentration in PBS […], followed by three-fold serial dilutions in 10% DMSO in PBS to produce a nine point dose-response curve. […] HWB (100 μl) is added to each well, and after mixing the plates are incubated at 37 C, 5% CO2, 100% humidity for 30 minutes.
Included are induced control, unstained and single stains for compensation adjustments and initial voltage settings. […] Supernatants are removed via suction and the remaining pellets are lysed again with another 1 ml of 1× Pharmingen Lyse Buffer, and plates are spun down as before. Supernatants are aspirated and remaining pellets are washed in FACs buffer (PBS+1% FBS). […] Samples are transferred to a 96 well plate suitable to be run on the HTS 96 well system on the BD LSR II flow cytometer.
Using appropriate excitation and emission wavelengths for the fluorophores used, data are acquired and percent positive cell values are obtained using Cell Quest Software. Results are initially analyzed by FACS analysis software (Flow Jo).

IC50 | SMILES
11 nM | CN1CCC(c2ccc(Nc3cc(-c4ccnc(-n5ncc6cc(C(C)(C)C)cc(F)c6c5=O)c4CO)nn(C)c3=O)nc2)CC1 [Compound I-1, 6-tert-Butyl-8-fluoro-2-{3-hydroxymethyl-4-[1-methyl-5-(1′-methyl-1′,2′,3′,4′,5′,6′-hexahydro-[3,4′]bipyridinyl-6-ylamino)-6-oxo-1,6-dihydro-pyridazin-3-yl]-pyridin-2-yl}-2H-phthalazin-1-one]
5 nM | CN1CCC[C@H]1c1ccc(Nc2cc(-c3ccnc(-n4ncc5cc(C(C)(C)C)cc(F)c5c4=O)c3CO)nn(C)c2=O)nc1 [Compound I-2, 6-tert-Butyl-8-fluoro-2-(3-hydroxymethyl-4-{1-methyl-5-[5-((S)-1-methyl-pyrrolidin-2-yl)-pyridin-2-ylamino]-6-oxo-1,6-dihydro-pyridazin-3-yl}-pyridin-2-yl)-2H-phthalazin-1-one]
14 nM | Cn1nc(-c2ccnc(-n3ncc4cc(C(C)(C)C)cc(F)c4c3=O)c2CO)cc(Nc2ccc(C(=O)N3CCOCC3)cn2)c1=O [Compound I-3, 6-tert-Butyl-8-fluoro-2-(3-hydroxymethyl-4-{1-methyl-5-[5-(morpholine-4-carbonyl)-pyridin-2-ylamino]-6-oxo-1,6-dihydro-pyridazin-3-yl}-pyridin-2-yl)-2H-phthalazin-1-one]
95 nM | Cn1nc(-c2ccnc(-n3ncc4cc(C(C)(C)C)cc(F)c4c3=O)c2CO)cc(Nc2ccc(S(C)(=O)=O)cn2)c1=O [Compound I-4, 6-tert-Butyl-8-fluoro-2-{3-hydroxymethyl-4-[5-(5-methanesulfonyl-pyridin-2-ylamino)-1-methyl-6-oxo-1,6-dihydro-pyridazin-3-yl]-pyridin-2-yl}-2H-phthalazin-1-one]
30 nM | CN(C)C(=O)c1ccc(Nc2cc(-c3ccnc(-n4ncc5cc(C(C)(C)C)cc(F)c5c4=O)c3CO)nn(C)c2=O)nc1 [Compound I-5, 6-{6-[2-(6-tert-Butyl-8-fluoro-1-oxo-1H-phthalazin-2-yl)-3-hydroxymethyl-pyridin-4-yl]-2-methyl-3-oxo-2,3-dihydro-pyridazin-4-ylamino}-N,N-dimethyl-nicotinamide]
77 nM | CN(C)C(=O)c1ccc(Nc2cc(-c3ccnc(-n4ccc5cc(C6CC6)cc(F)c5c4=O)c3CO)nn(C)c2=O)nc1 [Compound I-6, 6-{6-[2-(6-Cyclopropyl-8-fluoro-1-oxo-1H-isoquinolin-2-yl)-3-hydroxymethyl-pyridin-4-yl]-2-methyl-3-oxo-2,3-dihydro-pyridazin-4-ylamino}-N,N-dimethyl-nicotinamide]
101 nM | Cn1nc(-c2ccnc(-n3ncc4cc(C(C)(C)C)ccc4c3=O)c2CO)cc(Nc2ccc(C(=O)N3CCOCC3)cn2)c1=O [Compound I-7, 6-tert-Butyl-2-(3-hydroxymethyl-4-{1-methyl-5-[5-(morpholine-4-carbonyl)-pyridin-2-ylamino]-6-oxo-1,6-dihydro-pyridazin-3-yl}-pyridin-2-yl)-2H-phthalazin-1-one]
27 nM | Cn1cc(-c2ccnc(-n3ncc4cc(C(C)(C)C)cc(F)c4c3=O)c2CO)cc(Nc2ccc(C(=O)N3CCOCC3)cn2)c1=O [Compound I-8, 2′-(6-tert-Butyl-8-fluoro-1-oxo-1H-phthalazin-2-yl)-3′-hydroxymethyl-1-methyl-5-[5-(morpholine-4-carbonyl)-pyridin-2-ylamino]-1H-[3,4′]bipyridinyl-6-one]
9 nM | CN(C)C(=O)c1ccc(Nc2cc(-c3ccnc(-n4ncc5cc(C(C)(C)C)cc(F)c5c4=O)c3CO)cn(C)c2=O)nc1 [Compound I-10, 6-[2′-(6-tert-Butyl-8-fluoro-1-oxo-1H-phthalazin-2-yl)-3′-hydroxymethyl-1-methyl-6-oxo-1,6-dihydro-[3,4′]bipyridinyl-5-ylamino]-N,N-dimethyl-nicotinamide]
15 nM | Cn1cc(-c2ccnc(-n3ccc4cc(C5CC5)cc(F)c4c3=O)c2CO)cc(Nc2ccc(C(=O)N3CCOCC3)cn2)c1=O [Compound I-11, 2′-(6-Cyclopropyl-8-fluoro-1-oxo-1H-isoquinolin-2-yl)-3′-hydroxymethyl-1-methyl-5-[5-(morpholine-4-carbonyl)-pyridin-2-ylamino]-1H-[3,4′]bipyridinyl-6-one]
28 nM | CN1CCC[C@H]1c1ccc(Nc2cc(-c3ccnc(-n4ncc5cc(C(C)(C)C)ccc5c4=O)c3CO)nn(C)c2=O)nc1 [Compound I-12, 6-tert-Butyl-2-(3-hydroxymethyl-4-{1-methyl-5-[5-((S)-1-methyl-pyrrolidin-2-yl)-pyridin-2-ylamino]-6-oxo-1,6-dihydro-pyridazin-3-yl}-pyridin-2-yl)-2H-phthalazin-1-one]
47 nM | CN1CCC(c2ccc(Nc3cc(-c4ccnc(-n5ncc6cc(C(C)(C)C)ccc6c5=O)c4CO)nn(C)c3=O)nc2)CC1 [Compound I-13, 6-tert-Butyl-2-{3-hydroxymethyl-4-[1-methyl-5-(1′-methyl-1′,2′,3′,4′,5′,6′-hexahydro-[3,4′]bipyridinyl-6-ylamino)-6-oxo-1,6-dihydro-pyridazin-3-yl]-pyridin-2-yl}-2H-phthalazin-1-one]
6 nM | CCN1CCC(c2ccc(Nc3cc(-c4ccnc(-n5ncc6cc(C(C)(C)C)cc(F)c6c5=O)c4CO)nn(C)c3=O)nc2)CC1 [Compound I-14, 6-tert-Butyl-2-{4-[5-(1′-ethyl-1′,2′,3′,4′,5′,6′-hexahydro-[3,4′]bipyridinyl-6-ylamino)-1-methyl-6-oxo-1,6-dihydro-pyridazin-3-yl]-3-hydroxymethyl-pyridin-2-yl}-8-fluoro-2H-phthalazin-1-one]
3 nM | Cn1nc(-c2ccnc(-n3ncc4cc(C(C)(C)C)cc(F)c4c3=O)c2CO)cc(Nc2ccc(OC(C)(C)CN3CCC3)cn2)c1=O [Compound I-15, 2-(4-{5-[5-(2-Azetidin-1-yl-1,1-dimethyl-ethoxy)-pyridin-2-ylamino]-1-methyl-6-oxo-1,6-dihydro-pyridazin-3-yl}-3-hydroxymethyl-pyridin-2-yl)-6-tert-butyl-8-fluoro-2H-phthalazin-1-one]
28 nM | Cn1nc(-c2ccnc(-n3ncc4cc(C(C)(C)C)ccc4c3=O)c2CO)cc(Nc2ccc(OC(C)(C)CN3CCC3)cn2)c1=O [Compound I-16, 2-(4-{5-[5-(2-Azetidin-1-yl-1,1-dimethyl-ethoxy)-pyridin-2-ylamino]-1-methyl-6-oxo-1,6-dihydro-pyridazin-3-yl}-3-hydroxymethyl-pyridin-2-yl)-6-tert-butyl-2H-phthalazin-1-one]
30 nM | Cn1nc(Nc2cc(-c3ccnc(-n4ncc5cc(C(C)(C)C)cc(F)c5c4=O)c3CO)nn(C)c2=O)cc1CN1CCC1 [Compound I-17, 2-{4-[5-(5-Azetidin-1-ylmethyl-1-methyl-1H-pyrazol-3-ylamino)-1-methyl-6-oxo-1,6-dihydro-pyridazin-3-yl]-3-hydroxymethyl-pyridin-2-yl}-6-tert-butyl-8-fluoro-2H-phthalazin-1-one]
29 nM | CN1CCn2nc(Nc3cc(-c4ccnc(-n5ncc6cc(C(C)(C)C)cc(F)c6c5=O)c4CO)nn(C)c3=O)cc2C1 [Compound I-18, 6-tert-Butyl-8-fluoro-2-{3-hydroxymethyl-4-[1-methyl-5-(5-methyl-4,5,6,7-tetrahydro-pyrazolo[1,5-a]pyrazin-2-ylamino)-6-oxo-1,6-dihydro-pyridazin-3-yl]-pyridin-2-yl}-2H-phthalazin-1-one]
24 nM | CN1CCn2nc(Nc3cc(-c4ccnc(-n5ncc6cc(C(C)(C)C)ccc6c5=O)c4CO)nn(C)c3=O)cc2C1 [Compound I-19, 6-tert-Butyl-2-{3-hydroxymethyl-4-[1-methyl-5-(5-methyl-4,5,6,7-tetrahydro-pyrazolo[1,5-a]pyrazin-2-ylamino)-6-oxo-1,6-dihydro-pyridazin-3-yl]-pyridin-2-yl}-2H-phthalazin-1-one]
74 nM | CN1CCn2nc(Nc3cc(-c4ccnc(-n5ccc6cc(C7CC7)cc(F)c6c5=O)c4CO)nn(C)c3=O)cc2C1 [Compound I-20, 6-Cyclopropyl-8-fluoro-2-{3-hydroxymethyl-4-[1-methyl-5-(5-methyl-4,5,6,7-tetrahydro-pyrazolo[1,5-a]pyrazin-2-ylamino)-6-oxo-1,6-dihydro-pyridazin-3-yl]-pyridin-2-yl}-2H-isoquinolin-1-one]
18 nM | Cn1nc(-c2ccnc(-n3ncc4cc(C(C)(C)C)cc(F)c4c3=O)c2CO)cc(Nc2cc3n(n2)CCN(C2COC2)C3)c1=O [Compound I-21, 6-tert-Butyl-8-fluoro-2-{3-hydroxymethyl-4-[1-methyl-5-(5-oxetan-3-yl-4,5,6,7-tetrahydro-pyrazolo[1,5-a]pyrazin-2-ylamino)-6-oxo-1,6-dihydro-pyridazin-3-yl]-pyridin-2-yl}-2H-phthalazin-1-one]
44 nM | CCN1CCn2nc(Nc3cc(-c4ccnc(-n5ncc6cc(C(C)(C)C)cc(F)c6c5=O)c4CO)nn(C)c3=O)cc2C1 [Compound I-22, 6-tert-Butyl-2-{4-[5-(5-ethyl-4,5,6,7-tetrahydro-pyrazolo[1,5-a]pyrazin-2-ylamino)-1-methyl-6-oxo-1,6-dihydro-pyridazin-3-yl]-3-hydroxymethyl-pyridin-2-yl}-8-fluoro-2H-phthalazin-1-one]
